In series [1] the target is T1, B1 bradykinin receptor (Homo sapiens, UniProt P46663).
T1 sequence (P46663 whole entry): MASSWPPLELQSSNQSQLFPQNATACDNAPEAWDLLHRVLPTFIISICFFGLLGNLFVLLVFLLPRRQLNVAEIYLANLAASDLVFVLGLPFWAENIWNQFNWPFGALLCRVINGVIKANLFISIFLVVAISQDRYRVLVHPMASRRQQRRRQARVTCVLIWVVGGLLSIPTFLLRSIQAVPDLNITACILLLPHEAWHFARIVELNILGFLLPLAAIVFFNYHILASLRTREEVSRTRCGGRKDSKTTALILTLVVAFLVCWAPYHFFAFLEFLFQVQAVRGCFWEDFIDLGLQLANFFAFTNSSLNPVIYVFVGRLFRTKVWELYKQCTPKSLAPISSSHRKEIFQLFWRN
The series can be described thus: Binding affinity to human bradykinin B1 receptor expressed in CHO cells. Format: cell-based.

Series [2] can be described thus: Oral bioavailability in Sprague-Dawley rat at 10 mg/kg. Format: ADME, organism-based. The settings on record: in vivo.
Series [3] in a line: Half life in Sprague-Dawley rat at 10 mg/kg, po or 2 mg/kg, iv. It counts as ADME, organism-based. The following applies: in vivo.
Series [4] is described as follows: Clearance in Sprague-Dawley rat at 10 mg/kg, po or 2 mg/kg, iv. Format: ADME, organism-based. The settings on record: in vivo.
A short description of series [5]: Volume of distribution in Sprague-Dawley rat at 10 mg/kg, po or 2 mg/kg, iv. Format: ADME, organism-based. The settings on record: in vivo, read-out: Vdss.
A short description of series [6]: Half life in Beagle dog at 0.25 mg/kg, iv. It counts as ADME, organism-based, Canis lupus familiaris. The arrangement: dose 0.25 mg/kg, route intravenous. The following applies: in vivo.
A short description of series [7]: Clearance in Beagle dog at 0.25 mg/kg, iv. Format: ADME, organism-based, Canis lupus familiaris. The arrangement: dose 0.25 mg/kg, route intravenous. The settings on record: in vivo.
The nature of series [8]: Volume of distribution in Beagle dog at 0.25 mg/kg, iv. It counts as ADME, organism-based, Canis lupus familiaris. The following applies: in vivo. The arrangement: dose 0.25 mg/kg, route intravenous.
Series [9] in a line: Oral bioavailability in Beagle dog at 3 mg/kg by cassette dosing. Format: ADME, organism-based, Canis lupus familiaris. The settings on record: in vivo.
The nature of series [10]: Half life in Beagle dog at 3 mg/kg, po or 1 mg/kg, iv by cassette dosing. Format: ADME, organism-based, Canis lupus familiaris. The settings on record: in vivo.
A short description of series [11]: Clearance in Beagle dog at 3 mg/kg, po or 1 mg/kg, iv by cassette dosing. It counts as ADME, organism-based, Canis lupus familiaris. The following applies: in vivo.
Series [12] in a line: Oral bioavailability in rhesus monkey at 1 mg/kg. The following applies: in vivo. Format: ADME, organism-based, Macaca mulatta.
The nature of series [13]: Half life in rhesus monkey at 1 mg/kg, po or 1 mg/kg, iv. The settings on record: in vivo. It counts as ADME, organism-based, Macaca mulatta.
The nature of series [14]: Clearance in rhesus monkey at 1 mg/kg, po or 1 mg/kg, iv. It counts as ADME, organism-based, Macaca mulatta. The following applies: in vivo.
A short description of series [15]: Apparent permeability across pig LLC-PK1 cells. Format: ADME, cell-based, Sus scrofa.
The target of series [16] is T1, B1 bradykinin receptor. The series can be described thus: […] human bradykinin B1 receptor by FLIPR assay.
In series [17] the test system is LLC-PK1. The series can be described thus: Ratio of permeability from basolateral to apical over apical to basolateral side of pig MDR1 transfected LLC-PK1 cells. It counts as ADME, cell-based, Sus scrofa.
Series [18] concerns the target Cytochrome P450 3A4 (Homo sapiens, UniProt P08684). The series can be described thus: Inhibition of CYP3A4. Format: ADME.
Series [19] deals with Cytochrome P450 2C9 (Homo sapiens, UniProt P11712). The experiment in a line: Inhibition of CYP2C9. Format: ADME.
Series [20] has as its target Cytochrome P450 2D6 (Homo sapiens, UniProt P10635). The series can be described thus: Inhibition of CYP2D6. It counts as ADME.

21 molecules from ChEMBL document CHEMBL1141559, “Alpha-hydroxy amides as a novel class of bradykinin B1 selective antagonists” (Bioorg Med Chem Lett, 2008) can be followed below.

Sequence of Cytochrome P450 2D6 (P10635 whole entry): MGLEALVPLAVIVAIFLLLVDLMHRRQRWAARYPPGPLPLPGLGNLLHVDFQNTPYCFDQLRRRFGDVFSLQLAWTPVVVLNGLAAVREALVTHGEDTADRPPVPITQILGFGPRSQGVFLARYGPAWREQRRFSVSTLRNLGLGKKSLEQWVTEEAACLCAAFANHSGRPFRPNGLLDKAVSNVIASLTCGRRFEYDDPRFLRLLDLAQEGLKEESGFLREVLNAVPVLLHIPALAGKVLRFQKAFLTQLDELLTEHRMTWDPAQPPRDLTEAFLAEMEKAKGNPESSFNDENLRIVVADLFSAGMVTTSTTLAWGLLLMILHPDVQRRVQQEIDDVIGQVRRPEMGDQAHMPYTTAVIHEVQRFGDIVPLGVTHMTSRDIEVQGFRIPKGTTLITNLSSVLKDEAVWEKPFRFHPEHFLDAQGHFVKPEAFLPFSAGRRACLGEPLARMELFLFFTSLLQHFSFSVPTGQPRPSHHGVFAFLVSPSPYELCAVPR
Sequence of Cytochrome P450 2C9 (P11712 whole entry): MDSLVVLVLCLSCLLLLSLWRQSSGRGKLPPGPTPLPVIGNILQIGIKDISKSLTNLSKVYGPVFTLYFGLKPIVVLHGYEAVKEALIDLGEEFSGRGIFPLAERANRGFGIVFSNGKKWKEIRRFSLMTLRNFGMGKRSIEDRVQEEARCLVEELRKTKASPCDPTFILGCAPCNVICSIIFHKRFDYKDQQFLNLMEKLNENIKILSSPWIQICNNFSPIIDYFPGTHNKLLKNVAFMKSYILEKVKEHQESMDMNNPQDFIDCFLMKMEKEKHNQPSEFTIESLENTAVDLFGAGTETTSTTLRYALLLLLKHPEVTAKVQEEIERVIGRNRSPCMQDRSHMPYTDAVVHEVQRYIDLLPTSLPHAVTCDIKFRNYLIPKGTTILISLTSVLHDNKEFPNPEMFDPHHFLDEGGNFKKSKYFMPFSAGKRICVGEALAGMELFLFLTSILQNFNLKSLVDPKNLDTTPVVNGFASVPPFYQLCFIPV
Sequence of Cytochrome P450 3A4 (P08684 whole entry): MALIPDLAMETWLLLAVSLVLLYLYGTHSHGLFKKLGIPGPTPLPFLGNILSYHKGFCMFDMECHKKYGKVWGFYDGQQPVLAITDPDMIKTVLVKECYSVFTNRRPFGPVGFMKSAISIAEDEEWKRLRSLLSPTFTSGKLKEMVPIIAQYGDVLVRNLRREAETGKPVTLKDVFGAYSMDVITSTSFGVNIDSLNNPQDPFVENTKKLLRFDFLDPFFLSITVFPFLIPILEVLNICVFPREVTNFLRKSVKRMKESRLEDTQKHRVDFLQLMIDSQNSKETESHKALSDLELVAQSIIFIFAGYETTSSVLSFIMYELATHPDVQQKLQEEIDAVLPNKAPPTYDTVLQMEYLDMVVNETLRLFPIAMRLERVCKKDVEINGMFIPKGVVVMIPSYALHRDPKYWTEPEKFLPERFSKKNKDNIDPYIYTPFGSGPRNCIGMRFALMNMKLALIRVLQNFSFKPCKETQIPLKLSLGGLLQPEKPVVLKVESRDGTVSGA

Molecule `COC(=O)c1c(F)cccc1-c1ccc(CNC(=O)[C@](C)(O)C(F)(F)F)c(F)c1` returned a Ki in series [1] of 579 nM.
In [1], `COC(=O)c1c(F)cccc1-c1ccc(CNC(=O)[C@H](O)C(F)(F)F)c(F)c1` displayed a Ki of 479 nM.
On to `COC(=O)c1c(F)cccc1-c1ccc(CNC(=O)[C@@H](O)C(C)(C)C)c(F)c1`, for which, in [1], the inhibition constant (Ki) worked out at 88.5 nM.
As for `Cc1nc(-c2c(F)cc(Cl)cc2-c2cnc([C@@H](C)NC(=O)[C@@](C)(O)C(F)(F)F)c(F)c2)no1`, the results for the bioavailability in [2], in [9] and in [12] were 34%, 84% and 52%, respectively. Also, the half-life in series [3] was 2 h; in series [6], 17 h; in series [10], 11 h; in series [13], 1.3 h. Moreover, the clearance in series [4] turned out to be 4.9 mL/min/kg; in series [7] it was 0.42 mL/min/kg; in [11] it was 0.45 mL/min/kg; in series [14], 7.1 mL/min/kg. The Vd in series [5] turned out to be 0.52 L/kg; in [8], 0.51 L/kg. In series [15], the Papp was determined as 27 ×10⁻⁶ cm/s.
On to `Cc1noc(-c2c(Cl)cc(Cl)cc2-c2cnc([C@@H](C)NC(=O)[C@@](C)(O)C(F)(F)F)c(F)c2)n1`, for which the bioavailability in [2] was 21%. For the same molecule, the half-life was 3.9 h in series [3] and 9.5 h in [6]. For the same molecule, the clearance in series [4] stood at 20 mL/min/kg; in series [7], 0.91 mL/min/kg. Moreover, the values for the Vd in [5] and in series [8] were 1 L/kg and 0.66 L/kg, respectively. Besides, the affinity in series [1], expressed as Ki, was 0.79 nM. The same molecule came in with an IC50 in series [16] of 6.65 nM. Also, the Ratio in series [17] turned out to be 1.3. In addition, the Papp in [15] is 33 ×10⁻⁶ cm/s.
`C[C@@H](NC(=O)[C@@](C)(O)C(F)(F)F)c1ncc(-c2cc(Cl)cc(F)c2-c2nnn(C)n2)cc1F` showed a bioavailability in [2] of 53%. The results for the half-life in series [3] and in series [6] were 27 h and 38 h, respectively. Besides, the clearance in [4] was 1 mL/min/kg; in [7] it was 0.22 mL/min/kg. Moreover, the Vd turned out to be 0.54 L/kg in series [5] and 0.47 L/kg in series [8]. The concentration for half-maximal inhibition (IC50) is greater than 10000 nM in series [18], greater than 10000 nM in series [19], greater than 10000 nM in series [20] and 4.9 nM in series [16]. The same molecule gave a Ki in [1] of 0.59 nM. Further, in series [17], the Ratio came to 2.8. In addition, in series [15], the Papp stood at 36 ×10⁻⁶ cm/s.
With `COC(=O)c1c(F)cccc1-c1ccc(CNC(=O)[C@@](C)(O)C(C)C)c(F)c1`, the inhibitory constant (Ki) in series [1] worked out at 83.5 nM.
Take `COC(=O)c1c(F)cccc1-c1ccc(CNC(=O)C2(NC(=O)C(F)(F)F)CC2)c(F)c1`: in series [17], the Ratio came to 4.1.
`COC(=O)c1c(F)cccc1-c1ccc(CNC(=O)C2(O)CC2)c(F)c1` came in with a Ki in [1] of 59.1 nM.
As for `Cc1noc(-c2c(F)cc(Cl)cc2-c2cnc([C@@H](C)NC(=O)[C@@](C)(O)C(F)(F)F)c(F)c2)n1`, the bioavailability in series [2] amounted to 32%. Moreover, the half-life in [3] was 1.2 h; in [6] it was 15 h. In addition, the clearance in series [4] was 22 mL/min/kg; in [7], 1 mL/min/kg. Further, the Vd turned out to be 1.3 L/kg in series [5] and 1.2 L/kg in series [8]. The same molecule had a Ki in series [1] of 0.66 nM. The molecule further had an IC50 in series [16] of 6.65 nM. In [17], the Ratio is reported as 1.7. In series [15], the apparent permeability coefficient (Papp) was 35 ×10⁻⁶ cm/s.
With `COC(=O)c1c(F)cccc1-c1ccc(CNC(=O)[C@H](C)O)c(F)c1`, in series [1], the inhibitory constant (Ki) is 660 nM.
With `CCC(O)(CC)C(=O)NCc1ccc(-c2cccc(F)c2C(=O)OC)cc1F`, the inhibition constant Ki in [1] stood at 1090 nM.
For `COC(=O)c1c(Cl)cc(Cl)cc1-c1cnc([C@@H](C)NC(=O)[C@@](C)(O)C(F)(F)F)c(F)c1`, the bioavailability in series [2] is 47%. Besides, the figures for the half-life in [3] and in series [6] were 5.6 h and 3.6 h, respectively. Further, the results for the clearance in series [4] and in [7] were 7.8 mL/min/kg and 3.2 mL/min/kg, respectively. Moreover, the Vd was 1.2 L/kg in [5] and 0.73 L/kg in series [8]. In series [1], the Ki came out at 0.35 nM. This molecule also came in with an IC50 in series [16] of 3.93 nM. Further, in [17], the Ratio was determined as 1.6. Besides, the Papp in series [15] is 23 ×10⁻⁶ cm/s.
With `COC(=O)c1c(F)cccc1-c1ccc(CNC(=O)C(O)(C(F)(F)F)C(F)(F)F)c(F)c1`, the Ki in series [1] amounted to 95 nM.
`COC(=O)c1c(F)cccc1-c1ccc(CNC(=O)[C@@H](C)O)c(F)c1`: the affinity in series [1], expressed as Ki, was 1050 nM.
The molecule `C[C@@H](NC(=O)[C@@](C)(O)C(F)(F)F)c1ncc(-c2cc(Cl)cc(F)c2-c2nnn(C)n2)cc1Cl` yielded a bioavailability in [2] of 71%. For the same molecule, the results for the half-life in series [3] and in series [6] were 4.9 h and 9.8 h, respectively. For the same molecule, the figures for the clearance in [4] and in series [7] were 2.4 mL/min/kg and 1.3 mL/min/kg, respectively. Moreover, the Vd was 0.86 L/kg in [5] and 0.74 L/kg in series [8]. Besides, the Ki in series [1] was determined as 0.43 nM. The Ratio in series [17] is recorded as 1.8. Moreover, the apparent permeability (Papp) in series [15] was 26 ×10⁻⁶ cm/s.
With `COC(=O)c1c(F)cccc1-c1ccc(CNC(=O)[C@@](C)(O)C(F)(F)F)c(F)c1`, the half-life in series [6] is 1.4 h. The molecule further returned a clearance in series [7] of 16 mL/min/kg. In series [8], this molecule came in with a Vd of 1.2 L/kg. Further, the inhibitory constant (Ki) in series [1] is 24.5 nM. This molecule came in with a 50% inhibitory concentration (IC50) in series [16] of 43.6 nM. Further, the Ratio in series [17] was found to be 1.6. Further, the apparent permeability (Papp) in series [15] is 32 ×10⁻⁶ cm/s.
For `COC(=O)c1c(F)cccc1-c1ccc(CNC(=O)[C@@H](O)C(C)C)c(F)c1`, the inhibition constant (Ki) in series [1] turned out to be 71.5 nM.
Regarding `COC(=O)c1c(F)cccc1-c1ccc(CNC(=O)C(C)(C)O)c(F)c1`, the inhibition constant Ki in series [1] came out at 125 nM.
With `COC(=O)c1c(F)cccc1-c1ccc(CNC(=O)CO)c(F)c1`, the affinity in series [1] corresponds to a Ki of 516 nM.
In series [1], `COC(=O)c1c(F)cccc1-c1ccc(CNC(=O)[C@@H](O)C(F)(F)F)c(F)c1` returned a Ki of 109 nM.

One may read the Ki as a measure of affinity in units of concentration, obtained from inhibition or displacement. The bioavailability is the share of a dose that reaches the circulation, judged against a reference dose that is usually intravenous. The term half-life denotes the time needed for the level to fall by half in the phase considered. For orientation: Papp means the rate of passage across a membrane or cell layer, normalised by area and donor concentration. One may read the IC50 as the concentration at which inhibition is half-maximal.
